Measured values published in publication PMC3134342 (Journal of Experimental Botany, 2011).

Legend:
[1] = molecular target: T1, At-A/N-InvG (Arabidopsis thaliana, UniProt Q9LQF2); test: inhibition of sucrose hydrolysis, fructose by HPAEC-PAD; format: biochemical
T1 sequence (Q9LQF2 1-551): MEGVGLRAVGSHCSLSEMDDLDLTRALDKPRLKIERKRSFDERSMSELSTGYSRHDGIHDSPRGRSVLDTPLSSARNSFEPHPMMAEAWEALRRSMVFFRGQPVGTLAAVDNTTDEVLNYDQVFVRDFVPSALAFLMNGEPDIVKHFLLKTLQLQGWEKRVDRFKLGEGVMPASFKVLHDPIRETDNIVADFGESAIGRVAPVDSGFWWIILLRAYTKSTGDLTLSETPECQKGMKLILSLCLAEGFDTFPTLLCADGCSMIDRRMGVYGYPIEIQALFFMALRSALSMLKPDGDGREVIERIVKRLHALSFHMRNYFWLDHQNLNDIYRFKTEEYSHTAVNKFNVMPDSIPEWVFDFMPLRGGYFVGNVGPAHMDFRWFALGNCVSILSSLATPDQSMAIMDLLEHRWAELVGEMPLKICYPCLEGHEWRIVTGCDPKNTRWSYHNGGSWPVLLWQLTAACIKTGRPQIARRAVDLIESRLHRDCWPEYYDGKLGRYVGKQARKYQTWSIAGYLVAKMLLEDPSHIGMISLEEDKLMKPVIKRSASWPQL

[2] = molecular target: T2, At-A/N-InvA (Arabidopsis thaliana, UniProt Q9FXA8); test: as above; format: biochemical; conditions: 100 mM sucrose, 50 mM potassium phosphate, pH 8.2, 30 °C
T2 sequence (Q9FXA8 79-616): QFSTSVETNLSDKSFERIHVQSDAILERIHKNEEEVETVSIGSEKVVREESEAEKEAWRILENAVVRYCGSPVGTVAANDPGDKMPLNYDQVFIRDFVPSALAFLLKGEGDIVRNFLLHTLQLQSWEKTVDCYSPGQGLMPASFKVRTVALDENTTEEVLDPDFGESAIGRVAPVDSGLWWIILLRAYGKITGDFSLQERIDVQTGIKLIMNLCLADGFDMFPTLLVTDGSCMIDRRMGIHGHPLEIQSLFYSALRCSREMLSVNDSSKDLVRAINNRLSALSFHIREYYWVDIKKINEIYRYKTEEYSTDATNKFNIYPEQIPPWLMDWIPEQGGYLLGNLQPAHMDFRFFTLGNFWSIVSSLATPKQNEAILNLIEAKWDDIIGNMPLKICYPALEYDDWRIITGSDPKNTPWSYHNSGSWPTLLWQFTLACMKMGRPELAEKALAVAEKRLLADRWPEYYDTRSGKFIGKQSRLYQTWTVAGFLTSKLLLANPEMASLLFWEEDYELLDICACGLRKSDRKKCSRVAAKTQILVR

IC50 [1]: 25 to 30 mM
Structure (SMILES): NC(CO)(CO)CO [TRIS]
activity vs TRIS concentration [2]: A typical inhibitory effect of TRIS on At-A/N-InvA activity was found
